Experimental data reported in patent US7259004B1, “Endophytic streptomycetes from higher plants with biological activity” (Montana State University, priority 2002, dated 2007).

What was measured:
[1] = test system: S. aureus ATCC 6583P; experiment: MIC with and without double stranded DNA; assay type: cell-based, Staphylococcus aureus
[2] = test system: Cell wall synthesis in Bacillus subtilis; experiment: macromolecular synthesis whole cell assay, [3H]N-acetyl glucosamine incorporation; assay type: cell-based; conditions: for % [3H]N-acetyl glucosamine (Cell wall synthesis) incorporation of that of the untreated culture: 1×MIC
[3] = test system: Enterococcus faecium ATCC 51559; experiment: disk diffusion assay; assay type: cell-based; conditions: 10 micrograms per disk; ciprofloxacin 5, vancomycin 30 micrograms per disk; 35° C.
[4] = test system: Plasmodium falciparum strain CSC-1 (Honduras); experiment: antimalarial assay, 3H-phenylalanine radiobioassay in human red blood cells; conditions: human red blood cells, 3H-phenylalanine; standard deviation of the mean, three experiments
[5] = test system: Staphylococcus aureus ATCC 29213; experiment: disk diffusion assay; assay type: cell-based; conditions: 10 micrograms per disk; ciprofloxacin 5, vancomycin 30 micrograms per disk; 35° C.
[6] = test system: DNA synthesis in Bacillus subtilis; experiment: macromolecular synthesis whole cell assay, [3H]thymidine incorporation; assay type: cell-based; conditions: for % [3H]thymidine (DNA synthesis) incorporation of that of the untreated culture: 1×MIC
[7] = test system: RNA synthesis in Bacillus subtilis; experiment: macromolecular synthesis whole cell assay, [3H]uridine incorporation; assay type: cell-based; conditions: for % [3H]uridine (RNA synthesis) incorporation of that of the untreated culture: 1×MIC
[8] = test system: Human Primary Mammary Epithelial HMEC; experiment: CellTiter 96 Aqueous Non-Radioactive Cell Proliferation Assay; assay type: cell-based; conditions: 48 hours; Table 7
[9] = test system: Human Cervical Cancer Epithelial ME180; experiment: as above; assay type: cell-based; conditions: 48 hours; Table 7
Summary of the method: (§1)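 Cells rested 5 h at 37° C after seeding, then treated in triplicate with two-fold serial dilutions of compound. A-549 and ME-180 were exposed for 48 h. After 1–4 h MTS reagent at 37° C, OD490 was read and corrected by subtracting medium-only blanks.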

[10] = test system: Human Lung Cancer Epithelial A549; experiment: as above; assay type: cell-based; conditions: 48 hours; Table 7
Summary of the method: as §1

[11] = test system: Human Breast Cancer Epithelial BT-20; experiment: as above; assay type: cell-based; conditions: 96-144 hours; Table 7
[12] = test system: Pythium ultimum; experiment: microbroth dilution MIC, plant associated microorganisms; assay type: cell-based; conditions: PD broth, 48 hours at 23° C.
Protocol: (§2) Incubation was for 48 hours at 23° C. A plant pathogenic strain of Pseudomonas syringae was also tested using the same PD broth medium and with concentrations of colony forming units as given above. The organisms were obtained from the Montana State University plant pathogen culture collection administered by Dr. […] The relative activities against plant pathogenic fungi ranged from a few tenths of a microgram up to thirty micrograms. Table 2 provides the results of tests of inhibitory activity of the munumbicins against various plant-pathogenic fungi and one pathogenic bacterium. The data are reported as MIC values in micrograms/ml.

[13] = test system: Pseudomonas syringae; experiment: as above; assay type: cell-based; conditions: PD broth
Protocol: as §2

[14] = test system: Phytophthora cinnamomi; experiment: as above; assay type: cell-based; conditions: PD broth, 48 hours at 23° C.
Protocol: as §2

[15] = test system: Sclerotinia sclerotiorum; experiment: as above; assay type: cell-based; conditions: PD broth, 48 hours at 23° C.
Protocol: as §2

[16] = test system: Geotrichum candidum; experiment: as above; assay type: cell-based; conditions: PD broth, 48 hours at 23° C.
Protocol: as §2

[17] = test system: Rhizoctonia solani; experiment: as above; assay type: cell-based; conditions: PD broth, 48 hours at 23° C.
Protocol: as §2

[18] = test system: Protein synthesis in Bacillus subtilis; experiment: macromolecular synthesis whole cell assay, [3H]amino acid mixture incorporation; assay type: cell-based; conditions: for % [3H]amino acid mixture (Protein synthesis) incorporation of that of the untreated culture: 1×MIC
[19] = test system: Candida krusei ATCC 6258; experiment: disk diffusion assay; assay type: cell-based; conditions: 10 micrograms per disk; 35° C.
[20] = test system: GISA 700699; experiment: microbroth dilution MIC
[21] = test system: Bacillus cereus 4342; experiment: microbroth dilution MIC; assay type: cell-based
[22] = test system: Shigella dysenteriae ATCC 11835; experiment: disk diffusion assay; assay type: cell-based; conditions: 10 micrograms per disk; 35° C.
[23] = test system: Streptococcus pneumoniae 700674; experiment: microbroth dilution MIC
[24] = test system: Candida albicans; experiment: microbroth dilution MIC
[25] = test system: Staphyloccus aureus MH II Eli Lilly Co.; experiment: microbroth dilution MIC; conditions: drug sensitive strain
[26] = test system: human red blood cells
[27] = DNA +, 20 micrograms per well of sheared salmon sperm DNA

Substance	MIC S. aureus ATCC 6583P [1, 27] [micrograms/ml]	MIC S. aureus ATCC 6583P ([1]; DNA −) [micrograms/ml]	diameter of the zone of inhibition, Enterococcus faecium ATCC 51559 [3] [mm]	IC50 Plasmodium falciparum [4] [ng/mL]	diameter of the zone of inhibition, Staphylococcus aureus ATCC 29213 [5]	IC50 Human Primary Mammary Epithelial HMEC [8] [micrograms/ml]	IC50 Human Cervical Cancer Epithelial ME180 [9] [micrograms/ml]	IC50 Human Lung Cancer Epithelial A549 [10] [micrograms/ml]	IC50 Human Breast Cancer Epithelial BT-20 [11] [micrograms/ml]	MIC Pythium ultimum [12] [micrograms/ml]	MIC Pseudomonas syringae [13] [micrograms/ml]	MIC Phytophthora cinnamomi [14] [micrograms/ml]	MIC Sclerotinia sclerotiorum [15] [micrograms/ml]	MIC Geotrichum candidum [16] [micrograms/ml]	MIC Rhizoctonia solani [17] [micrograms/ml]	diameter of the zone of inhibition, Candida krusei ATCC 6258 [19]	MIC GISA 700699 [20] [micrograms/ml]	MIC Bacillus cereus 4342 [21] [micrograms/ml]	diameter of the zone of inhibition, Shigella dysenteriae ATCC 11835 [22]	MIC Streptococcus pneumoniae 700674 [23] [micrograms/ml]	also measured
munumbicin B	>32	2	26	130 ± 70	15 mm	0.011	0.140	0.019	0.019	0.2	2.0	6.2	0.20	31.2	8.0	R	2	0.5	R	0.5	effect on cell wall synthesis (in words) [2]: some inhibitory effect; % [3H]N-acetyl glucosamine (Cell wall synthesis) incorporation of that of the untreated culture ([2]; 5 min): 81%; % [3H]N-acetyl glucosamine (Cell wall synthesis) incorporation of that of the untreated culture ([2]; 10 min): 59%; effect on DNA synthesis (in words) [6]: no effect; % [3H]thymidine (DNA synthesis) incorporation of that of the untreated culture ([6]; 5 min): 93%; % [3H]thymidine (DNA synthesis) incorporation of that of the untreated culture ([6]; 10 min): 102%; effect on RNA synthesis (in words) [7]: some inhibitory effect; % [3H]uridine (RNA synthesis) incorporation of that of the untreated culture ([7]; 5 min): 64%; % [3H]uridine (RNA synthesis) incorporation of that of the untreated culture ([7]; 10 min): 59%; effect on protein synthesis (in words) [18]: milder inhibitory effect; % [3H]amino acid mixture (Protein synthesis) incorporation of that of the untreated culture ([18]; 5 min): 85%; % [3H]amino acid mixture (Protein synthesis) incorporation of that of the untreated culture ([18]; 10 min): 74%
munumbicin C	>32	0.5	28	6.5	R	0.0023	0.1	0.3	0.013	4.0	15.6	1.5	8.0	15.6	1.5	8 mm	2	0.25	R	0.125	MIC Candida albicans [24]: >10 micrograms/ml; MIC Staphyloccus aureus MH II Eli Lilly Co. [25]: 0.4 micrograms/ml; concentration causing detectable lysis of human red blood cells [26]: > 80 micrograms/ml
